Holding throughout (type): cell-based, human
In test [1] the test system is PC-3 cells. Description: PTS-induced apoptosis with Z-VAD-FMK (PI staining and nucleosomal DNA fragmentation assay). The settings on record: PC-3, 24 hours, FIG. 2E and 2F. Here is the method:
Flow cytometric analysis was performed as follows. Cells were harvested by trypsinization, fixed with 70% (v/v) alcohol at 4° C. for 30 min and washed with PBS. After centrifugation, the cells were incubated in phosphate-citric acid buffer (0.2 mol/l NaHPO4, 0.1 mol/l citric acid, pH 7.8) for 30 min at room temperature. The cells were then centrifuged and resuspended with 0.5 ml propidium iodide (PI) solution containing Triton X-100 (0.1% v/v), RNase (100 μg/ml) and PI (80 μg/ml). DNA content was analyzed with the FACScan and CellQuest software (Becton Dickinson, Mountain View, Calif., United States).
The DNA fragmentation was determined for cell death determination by use of the Cell Death Detection ELISAplus kit (Roche, Mannheim, Germany) The assay was based on the quantitative in vitro determination of cytoplasmic histone-associated DNA fragments (mono- and oligonucleosomes) after induced cell death. After the treatment with the compound, the cells were lysed and centrifuged, and the supernatant was used for the detection of nucleosomal DNA according to the manufacturer's protocol.

In test [2] the test system is PC-3 cells. Description: colony formation (clonogenic) assay. The settings on record: PC-3, PTS 1.5 mM, 10 days, FIG. 6E. Here is the method: To assay the anchorage-dependent clonogenic effect, each individual PC-3 and DU-145 cells (150 cells/well) were seeded in a 6-well plate. After a 10-day treatment with p-TSA, the cell colonies were rinsed with phosphate-buffered saline (PBS), stained with 0.4% (w/v) crystal violet dissolved in 20% methanol, and lysed by 50 mM sodium citrate dissolved in 50% ethanol. The absorbance was read at a wavelength of 595 nm.
To further substantiate the role of Akt, the Myr-Akt overexpressed PC-3 cells were prepared with the method shown as follows. The plasmid encoding Myr-Akt, an N-terminally myristoylation signal-attached Akt, was a gift from Professor Mien-Chie Hung (The University of Texas, M.D. Anderson Cancer Center). For transfection, PC-3 cells were seeded into 60-mm tissue culture dishes with 30% confluence and grown for 24 h to 50-60% confluence. Each dish was washed with serum-free Opti-MEM (Life Technologies), and 2 ml of the serum-free Opti-MEM was then added. Aliquots containing Myr-Akt expression vector or a control plasmid in serum-free Opti-MEM were transfected into cells using Lipofectamine 2000 (Invitrogen) following the manufacturer's instructions. After incubation for 6 h at 37° C., cells were washed with serum-free Opti-MEM and incubated in 10% FBS-containing RPMI-1640 medium for 48 h. The cells were treated with or without p-TSA and then the related analyses were performed. […] Furthermore, the functional rescue of Myr-Akt was determined. […] However, overexpression of Myr-Akt had minimal effect on p-TSA-induced cyclin D1 down-regulation.

For a further test, the system named is DU-145 cells. Description: Western blot of Bcl-2 family members, cell cycle regulators and Akt/mTOR/p70S6K pathway signals. Here is the method:
(§1) In addition, protein expression assay of each Mcl-1, Bcl-2, Bid, PUMA and Bak was performed by western blotting with methods described as follows. After treatment of PC-3 and DU145 cells with p-TSA, the cells were harvested with trypsinization, centrifuged and lysed in 0.1 ml of lysis buffer containing 10 mM Tris-HCl (pH 7.4), 150 mM NaCl, 1 mM EGTA, 1% Triton X-100, 1 mM PMSF, 10 μg/ml leupeptin, 10 μg/ml aprotinin, 50 mM NaF and 100 μM sodium orthovanadate. Total protein was quantified, mixed with the sample buffer and boiled at 90° C. for 5 min. Equal amount of protein (30 μg) was separated by electrophoresis in 8% or 12% SDS-PAGE, transferred to PVDF membranes and detected with specific antibodies (1:1000 dilution) for each of Mcl-1, Bcl-2, Bid, PUMA and Bak proteins. The immunoreactive proteins after incubation with appropriately labeled secondary antibody (1:3000 dilution) were detected with an enhanced chemiluminescence detection kit (Amersham, Buckinghamshire, United Kingdom). […] These effects were correlated with the mitochondrial stress.
(§2) During G1 phase, cells grow in size and synthesize mRNA and proteins which are necessary to DNA synthesis. The serine/threonine kinases mTOR and p70S6K that regulate protein synthesis (mRNA translation) through affecting the phosphorylation or activities of several downstream translation factors are critical regulators in G1 phase. Protein expression assay of each Akt, mTOR 4E-BP1 and p70S6K was performed by Western blotting.
In general terms: In western blotting, separated proteins are transferred to a membrane and probed.

The subject of test [3] is PC-3 cells. Described as above. As to conditions: PC-3, 1 h, FIGS. 6A to 6D. Here is the method:
as §1, §2

[4] abbreviates: particularly in DU-145 cells, 1 h.

Each structure is given as a SMILES string. Peptide text beside a SMILES is read from it. * marks the point of attachment. Cbz = O=C(OCc1ccccc1)*; CH2F = FC*

We go through 2 compounds from patent US20200338028A1, “BENZENESULFONAMIDE DERIVATIVES AND METHOD FOR MODULATING LIPID RAFT” (Gongwin Biopharm Co., Ltd., priority 2017, published 2020).

With `COC(=O)C[C@H](NC(=O)[C@H](C)NC(=O)[C@@H](NC(=O)OCc1ccccc1)C(C)C)C(=O)CF` [Z-VAD-FMK] (Cbz-Val-Ala-Asp(OMe)-CH2F), in the test on PC-3 cells [1], the “effect of Z-VAD-FMK on PTS-induced apoptosis” value is “profoundly inhibited PTS-induced apoptosis”.

With `CC(C)CCC[C@@H](C)[C@H]1CC[C@H]2[C@@H]3CC=C4C[C@@H](O)CC[C@]4(C)[C@H]3CC[C@]12C` [cholesterol, reference compound], the “effect of cholesterol on PTS-induced inhibition of cell growth, colony formation assay” value in the test on PC-3 cells [2] is given as “significantly rescued PTS-induced inhibition of cell growth”. Also, the “effect of cholesterol supplement on p-TSA-induced decrease of Akt and p70S6K phosphorylation” value in the test on DU-145 cells (DU-145, 1 h, FIGS. 6A to 6D) is reported as “significantly rescued”; with PC-3 cells [3], “significantly rescued”. In the test on DU-145 cells (setting [4]), the “Akt phosphorylation, cholesterol by itself” value is listed as “increase”. Besides, the “cyclin D1 protein expression, cholesterol by itself” value in the test with DU-145 cells (setting [4]) was “decrease”.
